Reference: US5272054A, “Assay by enzyme-catalyzed isotopic exchange” (Syntex (U.S.A.) Inc., priority 1992, dated 1993)

tested on: soluble 17β-hydroxysteroid dehydrogenase; experiment: Isotopic exchange assay using 17β-hydroxysteroid dehydrogenase: specificity; type: biochemical, human; conditions: not given
Description: Estradiol-17β and estrone are determined using soluble 17β-hydroxysteroid dehydrogenase from human term placenta obtained by the procedure of Jarabak, J. "Methods in Enzymology", vol.

| Molecule | rate of reaction relative to estrone |
| --- | --- |
| CC(=O)[C@H]1CC[C@H]2[C@@H]3CCC4=CC(=O)CC[C@]4(C)[C@H]3CC[C@]12C [Progesterone] | one-fiftieth |
| C[C@H](O)[C@H]1CC[C@H]2[C@@H]3CCC4=CC(=O)CC[C@]4(C)[C@H]3CC[C@]12C [20α-hydroxy derivative] | one-fiftieth |

same assay, conditions: estradiol-17β / estrone assay

| Molecule | interference with assay results |
| --- | --- |
| C[C@]12CC[C@@H]3c4ccc(O)cc4CC[C@H]3[C@@H]1C[C@H](O)C2 [16β-estradiol] | will not interfere with the assay results |

tested on: D-lactate dehydrogenase; experiment: Isotopic exchange assay using D-lactate dehydrogenase: specificity; type: biochemical; conditions: D-lactate / pyruvate assay, enzyme from Lactobacillus plantarum
Description: D-lactate and pyruvate in plasma are determined using D-lactate dehydrogenase from Lactobacillus leichmannii (Sigma or Boehringer-Mannheimbiochemicals) obtained by the procedure of Brandt, R. B. "Methods in Enzymology", vol. 89, page 35 (Academic Press, New York, 1982), pages 35-40 of which are incorporated herein by reference. The assay will detect D-lactate concentrations in plasma from 0.006 to 1.2 mM and at higher concentrations in food or microbiological samples. If the enzyme is from Lactobacillus plantarum obtained according to Dennis, D.; Kaplan, N. O. J. Bio.

| Molecule | interference with assay results |
| --- | --- |
| CCCC[C@@H](O)C(=O)O | will not interfere with the assay results |
| CC[C@@H](O)C(=O)O [2-hydroxy-D-butyrate] | will not interfere with the assay results |
| CC(C)[C@@H](O)C(=O)O [Disovalerate] | will not interfere with the assay results |
| CC(C)C[C@@H](O)C(=O)O | will not interfere with the assay results |
| C[C@H](O)C(=O)O [L-lactate] | will not interfere with the assay results |

same assay, conditions: enzyme from Lactobacillus plantarum

| Molecule | replacement of NAD as cofactor |
| --- | --- |
| nicotinamide adenine dinucleotide phosphate [NAD(P)] | will not replace NAD |

tested on: homoserine dehydrogenase; experiment: Isotopic exchange assay using homoserine dehydrogenase: specificity; type: biochemical, Baker's Yeast; conditions: not given
Description: Homoserine and aspartic-β-semialdehyde are determined using homoserine dehydrogenase from Baker's Yeast (Anheuser-Busch) obtained by the procedure of Black, S. "Methods in Enzymology", vol. V, page 820 (Academic Press, New York, 1962), pages 824-827 of which are incorporated herein by reference. […] Other non-interfering substances will include 3-aminopropanol, γ-hydroxybutyrate, acetaldehyde, DL-threonine, DL-serine, and DL-homocysteine. DL-glutamic γ-semialdehyde will react at 1% of the rate of aspartic-β-semialdehyde.

| Molecule | rate of reaction relative to aspartic-β-semialdehyde |
| --- | --- |
| NC(CCC=O)C(=O)O (racemic) [DL-glutamic γ-semialdehyde] | 1% |

same assay, conditions: homoserine / aspartic-β-semialdehyde assay

| Molecule | interference with assay results |
| --- | --- |
| NC(CCS)C(=O)O (racemic) [DL-homocysteine] | non-interfering |
| CC=O [acetaldehyde] | non-interfering |
| C[C@@H](O)[C@H](N)C(=O)O (racemic) [DL-threonine] | non-interfering |
| NCCCO [3-aminopropanol] | non-interfering |
| NC(CO)C(=O)O (racemic) [DL-serine] | non-interfering |

tested on: 21-hydroxysteroid dehydrogenase; experiment: Isotopic exchange assay using 21-hydroxysteroid dehydrogenase: specificity; type: biochemical, sheep; conditions: not given
Description: Cortisol and 21-dehydrocortisol are determined using AND dependent 21-hydroxysteroid dehydrogenase from sheep liver obtained by the procedure of Monder, C.; Furfine, C. S. "Methods in Enzymology", vol. […] 21-hydroxy-derivatives of cortisol, cortisone, corticosterone, 11-deoxycortisol, Δ^1 -cortisone, Δ^1 -cortisol, 11-deoxycorticosterone, and 9α-fluorocortisol will all be assayed using this enzyme.

| Molecule | replacement of NAD as cofactor |
| --- | --- |
| nicotinamide adenine dinucleotide phosphate [NAD(P)] | will not replace NAD |

tested on: ω-hydroxydecanoate dehydrogenase; experiment: Isotopic exchange assay using ω-hydroxydecanoate dehydrogenase: specificity; type: biochemical, rabbit; conditions: 10-hydroxydecanoate / 10-oxodecanoate assay
From the text: The enzyme obtained will be contaminated to some degree with L-lactate dehydrogenase (I.U.B. 1.1.1.27).

| Molecule | interference with assay results |
| --- | --- |
| C[C@@H](O)[C@H](N)C(=O)O [threonine] | will not interfere with assay results |
| NCCO [ethanolamine] | will not interfere with assay results |
| N[C@@H](CO)C(=O)O [serine] | will not interfere with assay results |
| Cc1ncc(CO)c(CO)c1O [pyridoxine] | will not interfere with assay results |
| CCO [ethanol] | will not interfere with assay results |

same assay, conditions: value in brackets after the substrate

| Molecule | relative rate of reaction |
| --- | --- |
| O=C(O)CCCCCCCCCCO [11-hydroxy undecanoate] | 100 |
| O=C(O)CCCCCCCCCO [10-hydroxycaproate] | 0.90 |

tested on: fructuronate reductase; experiment: Isotopic exchange assay using fructuronate reductase: specificity; type: biochemical, Escheria coli K-12 strain S 3000 (Hfr H); conditions: not given
Description: D-mannonate and D-fructuronate are determined using fructuronate reductase from Escheria coli K-12 strain S 3000 (Hfr H) obtained by the procedure of Portalier, R.; Stoeber, F. "Methods in Enzymology", vol. 89, page 210 (Academic Press, New York, 1982), pages 210-218 of which are incorporated herein by reference. […] D-tagaturonate and D-altronate are 20% as active as D-fructuronate and D-mannonate, respectively.

| Molecule | substitution for NAD as cofactor |
| --- | --- |
| nicotinamide adenine dinucleotide phosphate [NAD(P)] | will not substitute for AND |

same assay, conditions: D-mannonate / D-fructuronate assay

| Molecule | interference with assay results |
| --- | --- |
| O=C(CO)[C@@H](O)[C@@H](O)[C@H](O)CO [D-tagatose] | will not interfere with assay results |
| O=C[C@H](O)[C@@H](O)[C@@H](O)[C@H](O)CO [D-galactose] | will not interfere with assay results |
| O=C[C@@H](O)[C@H](O)[C@H](O)CO [D-arabinose] | will not interfere with assay results |
| O=C[C@@H](O)[C@H](O)[C@@H](O)CO [L-xylose] | will not interfere with assay results |
| O=C[C@@H](O)[C@@H](O)[C@H](O)[C@H](O)C(O)CO (stereo partly drawn) [D-manno-heptose] | will not interfere with assay results |
| O=C(CO)[C@@H](O)[C@H](O)[C@H](O)[C@H](O)CO [D-altro-heptulose] | will not interfere with assay results |
| O=C[C@H](O)[C@@H](O)[C@H](O)CO [D-xylose] | will not interfere with assay results |
| O=C[C@H](O)[C@H](O)[C@H](O)CO [D-ribose] | will not interfere with assay results |
| O=C(CO)[C@@H](O)[C@H](O)[C@H](O)CO [D-fructose] | will not interfere with assay results |
| O=C[C@H](O)[C@H](O)[C@@H](O)CO [L-lyxose] | will not interfere with assay results |
| O=C(CO)[C@H](O)[C@@H](O)[C@H](O)CO [D-sorbose] | will not interfere with assay results |
| O=C[C@@H](O)[C@@H](O)[C@H](O)[C@H](O)CO [D-mannose] | will not interfere with assay results |
| O=C[C@H](O)[C@@H](O)[C@@H](O)CO [L-arabinose] | will not interfere with assay results |
| O=C(CO)[C@H](O)[C@H](O)CO [D-ribulose] | will not interfere with assay results |
| O=C[C@H](O)[C@@H](O)[C@H](O)[C@H](O)CO [D-glucose] | will not interfere with assay results |

tested on: 15-hydroxyprostaglandin dehydrogenase; experiment: Isotopic exchange assay using 15-hydroxyprostaglandin dehydrogenase: specificity; type: biochemical, pig; conditions: not given
Description: 11α,15-dihydroxy-9-oxoprost-13-enoate and 11α-hydroxy-9, 15-dioxoprost-13-enoate are determined using 15-hydroxyprostaglandin dehydrogenase from pig lung obtained by the procedure of Anggard, E.; Samuelsson, B. "Methods in Enzymology", vol. 14, page 215 (Academic Press, New York, 1969), pages 215-219 of which are incorporated herein by reference. The assay will detect most 15-hydroxy or 15-oxo-prostaglandins except those containing the dienone chromophore such as prostaglandin B compounds and their 19-hydroxylated derivatives.

| Molecule | replacement of NAD as cofactor |
| --- | --- |
| nicotinamide adenine dinucleotide phosphate [NAD(P)] | will not replace NAD |
